Assay results: patent US9242970B2 (ACTELION PHARMACEUTICALS LTD., priority 2010, dated 2016)

Target: human orexin-2 receptor (Homo sapiens (Human), UniProt O43614)
Assay: In vitro assay: intracellular calcium measurements (FLIPR), antagonistic activity
Type: cell-based
Conditions: CHO cells, 3 nM orexin-A, compound incubation 120 min; marked values are geometric means of n = 2-6; read-out: IC50 OX2
Experimental: (§1) In Vitro Assay: Intracellular Calcium Measurements:
(§2) Chinese hamster ovary (CHO) cells expressing the human orexin-1 receptor and the human orexin-2 receptor, respectively, are grown in culture medium (Ham F-12 with L-Glutamine) containing 300 µg/ml G418, 100 U/ml penicillin, 100 µg/ml streptomycin and 10% heat inactivated fetal calf serum (FCS). The cells are seeded at 20,000 cells/well into 384-well black clear bottom sterile plates (Greiner). The seeded plates are incubated overnight at 37° C. in 5% CO2.
(§3) Fluorescence is measured for each well at 1 second intervals, and the height of each fluorescence peak is compared to the height of the fluorescence peak induced by 3 nM orexin-A with vehicle in place of antagonist. […] Optimized conditions were achieved by adjustment of pipetting speed and cell splitting regime. The calculated IC50 values may fluctuate depending on the daily cellular assay performance. Fluctuations of this kind are known to those skilled in the art.

Sequence of human orexin-2 receptor (O43614 whole entry): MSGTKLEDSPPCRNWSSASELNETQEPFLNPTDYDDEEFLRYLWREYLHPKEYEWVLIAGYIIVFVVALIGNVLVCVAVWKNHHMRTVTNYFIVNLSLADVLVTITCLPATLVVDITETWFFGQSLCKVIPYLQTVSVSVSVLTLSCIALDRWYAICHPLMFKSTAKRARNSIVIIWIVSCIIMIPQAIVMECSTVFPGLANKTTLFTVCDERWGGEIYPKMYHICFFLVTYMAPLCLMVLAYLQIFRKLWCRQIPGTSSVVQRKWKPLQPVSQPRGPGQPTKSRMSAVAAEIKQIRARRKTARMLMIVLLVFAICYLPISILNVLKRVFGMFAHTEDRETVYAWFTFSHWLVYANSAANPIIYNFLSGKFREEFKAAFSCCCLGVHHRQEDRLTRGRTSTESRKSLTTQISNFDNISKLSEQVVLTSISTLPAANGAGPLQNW

Row | IC50 | Compound
1 | 0.143 µM | COc1cc(F)ccc1[C@@H]1C[C@H](F)C(=O)N1Cc1ccc(OC(F)(F)F)cc1 (racemic) [Example 303, rac-(3S*,5S*)-3-fluoro-5-(4-fluoro-2-methoxyphenyl)-1-(4-(trifluoromethoxy)benzyl)pyrrolidin-2-one]
2 | 0.025 µM | CCOc1cccc(CN2C(=O)C(C)CC2c2c(F)cccc2OCC)c1 (centres unmarked) [Example 376, 5-(2-ethoxy-6-fluorophenyl)-1-(3-ethoxybenzyl)-3-methylpyrrolidin-2-one]
3 | 1.68 µM | CCOc1c(F)cccc1[C@@H]1C[C@@H](O)C(=O)N1Cc1ccc(OC(F)(F)F)cc1 (racemic) [Example 310, rac-(3R*,5S*)-5-(2-ethoxy-3-fluorophenyl)-3-hydroxy-1-(4-(trifluoromethoxy)benzyl)pyrrolidin-2-one]

Same assay, conditions: read-out: IC50 OX2

Row | Compound | IC50
4 | CCCOc1ccc(CN2C(=O)C(C)CC2c2c(F)cccc2OCC)cc1 (centres unmarked) [Example 377, 5-(2-ethoxy-6-fluorophenyl)-3-methyl-1-(4-propoxybenzyl)pyrrolidin-2-one] | 0.095 µM

Target: human orexin-1 receptor (Homo sapiens (Human), UniProt O43613)
Assay: as above
Type: cell-based
Conditions: CHO cells, 3 nM orexin-A, compound incubation 120 min; marked values are geometric means of n = 2-6; read-out: IC50 OX1
Experimental: as §1, §2, §3

Sequence of human orexin-1 receptor (O43613 whole entry): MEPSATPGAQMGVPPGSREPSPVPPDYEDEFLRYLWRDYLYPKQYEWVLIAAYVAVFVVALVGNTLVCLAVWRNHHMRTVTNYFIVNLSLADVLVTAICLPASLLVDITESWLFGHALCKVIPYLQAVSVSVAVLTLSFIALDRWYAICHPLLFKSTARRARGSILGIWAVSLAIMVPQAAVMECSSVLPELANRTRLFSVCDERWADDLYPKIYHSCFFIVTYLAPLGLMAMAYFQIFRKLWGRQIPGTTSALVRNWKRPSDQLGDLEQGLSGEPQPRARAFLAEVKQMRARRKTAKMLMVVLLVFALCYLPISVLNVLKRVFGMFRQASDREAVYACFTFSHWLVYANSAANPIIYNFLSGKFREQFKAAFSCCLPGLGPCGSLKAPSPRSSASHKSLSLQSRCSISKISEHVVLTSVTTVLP

Row | Compound | IC50
5 | COc1ccc2ccccc2c1[C@@H]1C[C@H](F)C(=O)N1Cc1ccc(OC(F)(F)F)cc1 (racemic) [Example 315, rac-(3S*,5S*)-3-fluoro-5-(2-methoxynaphthalen-1-yl)-1-(4-(trifluoromethoxy)benzyl)pyrrolidin-2-one] | 1.2 µM
6 | O=C1[C@@H](Cl)C[C@@H](c2cccc3c2OCCO3)N1Cc1ccc(OC(F)(F)F)cc1 (racemic) [Example 307, rac-(3S*,5S*)-3-chloro-5-(2,3-dihydrobenzo[b][1,4]dioxin-5-yl)-1-(4-(trifluoromethoxy)benzyl)pyrrolidin-2-one] | 0.563 µM
7 | COc1cccc(OC)c1C1CCCC(=O)N1Cc1ccc2ccccc2n1 (centres unmarked) [Example 4b, 6-(2,6-dimethoxyphenyl)-1-(quinolin-2-ylmethyl)piperidin-2-one] | 1.42 µM
8 | COc1cccc(Cl)c1[C@@H]1C[C@@H](O)C(=O)N1Cc1ccc(OC(F)(F)F)cc1 (racemic) [Example 294, rac-(3R*,5S*)-5-(2-chloro-6-methoxyphenyl)-3-hydroxy-1-(4-(trifluoromethoxy)benzyl)pyrrolidin-2-one] | 2.44 µM
9 | COc1c(F)ccc(F)c1[C@@H]1C[C@@H](Cl)C(=O)N1Cc1ccc(OC(F)(F)F)cc1 (racemic) [Example 317, rac-(3R*,5S*)-3-chloro-5-(3,6-difluoro-2-methoxyphenyl)-1-(4-(trifluoromethoxy)benzyl)pyrrolidin-2-one] | 1.07 µM
10 | COc1cccc(OC)c1C1CCCC(=O)N1Cc1cnc(OC(F)F)c(C2CC2)c1 (centres unmarked) [Example 70, 1-((5-cyclopropyl-6-(difluoromethoxy)pyridin-3-yl)methyl)-6-(2,6-dimethoxyphenyl)piperidin-2-one] | 1.78 µM
11 | COc1cccc(OC)c1C1CCCC(=O)N1Cc1ccc2ccccc2n1 (centres unmarked) [Example 4a, 6-(2,6-dimethoxyphenyl)-1-(quinolin-2-ylmethyl)piperidin-2-one] | 0.016 µM
12 | CCOc1ccc(F)c(F)c1[C@@H]1C[C@H](Cl)C(=O)N1Cc1ccc(OC(F)(F)F)cc1 (racemic) [Example 339, rac-(3S*,5S*)-3-chloro-5-(6-ethoxy-2,3-difluorophenyl)-1-(4-(trifluoromethoxy)benzyl)pyrrolidin-2-one] | 0.816 µM
13 | COc1cccc(OC)c1C1CCCC(=O)N1Cc1ccc2ccccc2n1 (centres unmarked) [Example 4, 6-(2,6-dimethoxyphenyl)-1-(quinolin-2-ylmethyl)piperidin-2-one] | 0.174 µM
14 | COc1c(F)ccc(F)c1[C@@H]1C[C@H](Cl)C(=O)N1Cc1ccc(OC(F)(F)F)cc1 (racemic) [Example 320, rac-(3S*,5S*)-3-chloro-5-(3,6-difluoro-2-methoxyphenyl)-1-(4-(trifluoromethoxy)benzyl)pyrrolidin-2-one] | 1.05 µM
15 | COc1cccc(F)c1[C@@H]1C[C@@H](O)C(=O)N1Cc1ccc(OC(F)(F)F)cc1 (racemic) [Example 293, rac-(3R*,5S*)-5-(2-fluoro-6-methoxyphenyl)-3-hydroxy-1-(4-(trifluoromethoxy)benzyl)pyrrolidin-2-one] | 2.75 µM
16 | CCOc1ccc(F)c(F)c1[C@@H]1C[C@@H](Cl)C(=O)N1Cc1ccc(OC(F)(F)F)cc1 (racemic) [Example 346, rac-(3R*,5S*)-3-chloro-5-(6-ethoxy-2,3-difluorophenyl)-1-(4-(trifluoromethoxy)benzyl)pyrrolidin-2-one] | 2.85 µM

The remaining lines, values ahead:

Row | IC50 | Compound
17 | 1.8 µM | CCOc1cc(F)ccc1[C@@H]1C[C@H](F)C(=O)N1Cc1ccc(OC(F)(F)F)cc1 (racemic) [Example 344, rac-(3S*,5S*)-5-(2-ethoxy-4-fluorophenyl)-3-fluoro-1-(4-(trifluoromethoxy)benzyl)pyrrolidin-2-one]
18 | 1.38 µM | COc1cccc(C)c1[C@@H]1C[C@H](F)C(=O)N1Cc1ccc(OC(F)(F)F)cc1 (racemic) [Example 325, rac-(3S*,5S*)-3-fluoro-5-(2-methoxy-6-methylphenyl)-1-(4-(trifluoromethoxy)benzyl)pyrrolidin-2-one]
19 | 5.36 µM | COc1cccc(F)c1[C@@H]1C[C@@H](O)C(=O)N1Cc1cccc(OC(F)(F)F)c1 (racemic) [Example 430, rac-(3R*,5S*)-5-(2-fluoro-6-methoxyphenyl)-3-hydroxy-1-(3-(trifluoromethoxy)benzyl)pyrrolidin-2-one]
20 | 0.678 µM | CC(C)Oc1cccc(F)c1[C@@H]1C[C@H](F)C(=O)N1Cc1ccc(OC(F)(F)F)cc1 (racemic) [Example 407, rac-(3S*,5S*)-3-fluoro-5-(2-fluoro-6-isopropoxyphenyl)-1-(4-(trifluoromethoxy)benzyl)pyrrolidin-2-one]
21 | 0.323 µM | CC(C)Oc1cccc(F)c1[C@@H]1C[C@H](Cl)C(=O)N1Cc1ccc(OC(F)(F)F)cc1 (racemic) [Example 409, rac-(3S*,5S*)-3-chloro-5-(2-fluoro-6-isopropoxyphenyl)-1-(4-(trifluoromethoxy)benzyl)pyrrolidin-2-one]
22 | 0.227 µM | COc1ccc(F)c(OC)c1[C@@H]1C[C@H](Cl)C(=O)N1Cc1ccc(OC(F)(F)F)cc1 (racemic) [Example 330, rac-(3S*,5S*)-3-chloro-5-(3-fluoro-2,6-dimethoxyphenyl)-1-(4-(trifluoromethoxy)benzyl)pyrrolidin-2-one]
23 | 0.739 µM | COc1ccc(F)c(OC)c1[C@@H]1C[C@@H](Cl)C(=O)N1Cc1ccc(OC(F)(F)F)cc1 (racemic) [Example 328, rac-(3R*,5S*)-3-chloro-5-(3-fluoro-2,6-dimethoxyphenyl)-1-(4-(trifluoromethoxy)benzyl)pyrrolidin-2-one]
24 | 1.06 µM | CCOc1c(F)cccc1[C@@H]1C[C@@H](Cl)C(=O)N1Cc1ccc(OC(F)(F)F)cc1 (racemic) [Example 327, rac-(3R*,5S*)-3-chloro-5-(2-ethoxy-3-fluorophenyl)-1-(4-(trifluoromethoxy)benzyl)pyrrolidin-2-one]
25 | 1.08 µM | O=C1[C@H](Cl)C[C@@H](c2cccc3c2OCCO3)N1Cc1ccc(OC(F)(F)F)cc1 (racemic) [Example 322, rac-(3R*,5S*)-3-chloro-5-(2,3-dihydrobenzo[b][1,4]dioxin-5-yl)-1-(4-(trifluoromethoxy)benzyl)pyrrolidin-2-one]
26 | 0.023 µM | COc1cccc(OC)c1[C@@H]1C[C@@H](F)C(=O)N1Cc1ccc2oc3ccccc3c2c1 (racemic) [Example 368, rac-(3R*,5S*)-1-(dibenzo[b,d]furan-2-ylmethyl)-5-(2,6-dimethoxyphenyl)-3-fluoropyrrolidin-2-one]
27 | 0.405 µM | CCOc1cccc(F)c1[C@@H]1C[C@H](Cl)C(=O)N1Cc1ccc(OC(F)(F)F)c(Cl)c1 (racemic) [Example 462, rac-(3S*,5S*)-3-chloro-1-(3-chloro-4-(trifluoromethoxy)benzyl)-5-(2-ethoxy-6-fluorophenyl)pyrrolidin-2-one]
28 | 1.23 µM | CCOc1cccc(Cl)c1[C@@H]1C[C@@H](O)C(=O)N1Cc1ccc(OC(F)(F)F)cc1 (racemic) [Example 427, rac-(3R*,5S*)-5-(2-chloro-6-ethoxyphenyl)-3-hydroxy-1-(4-(trifluoromethoxy)benzyl)pyrrolidin-2-one]
29 | 0.724 µM | CCOc1cccc(F)c1[C@@H]1C[C@H](F)C(=O)N1Cc1ccc(OC(F)(F)F)c(Cl)c1 (racemic) [Example 461, rac-(3S*,5S*)-1-(3-chloro-4-(trifluoromethoxy)benzyl)-5-(2-ethoxy-6-fluorophenyl)-3-fluoropyrrolidin-2-one]
30 | 0.885 µM | CCOc1c(F)cccc1[C@@H]1C[C@H](Cl)C(=O)N1Cc1ccc(OC(F)(F)F)cc1 (racemic) [Example 329, rac-(3S*,5S*)-3-chloro-5-(2-ethoxy-3-fluorophenyl)-1-(4-(trifluoromethoxy)benzyl)pyrrolidin-2-one]

Same assay, conditions: CHO cells, 3 nM orexin-A, compound incubation time of 10 min; marked values are geometric means of n = 2-6; read-out: IC50 OX1

Row | Compound | IC50
31 | CCOc1cccc(OCC)c1C1CCCC(=O)N1Cc1ccc(OC(F)(F)F)cc1 (centres unmarked) [Example 231, 6-(2,6-diethoxyphenyl)-1-(4-(trifluoromethoxy)benzyl)piperidin-2-one] | 0.55 µM
32 | COc1cccc(F)c1[C@@H]1C[C@H](O)C(=O)N1Cc1ccc(OC(F)(F)F)cc1 (racemic) [Example 265, rac-(3S*,5S*)-5-(2-fluoro-6-methoxyphenyl)-3-hydroxy-1-(4-(trifluoromethoxy)benzyl)pyrrolidin-2-one] | 0.73 µM
